The text below walks through data of US20140072557A1, “MEDICINAL AGENT FOR SUPPRESSING MALIGNANT TUMOR METASTASIS” (priority 2011, published 2014).

The test system of experiment [1] is A549 cells. The experiment in a line: EMT induced by TGF-β1 in A549 cells (morphology, quantitative RT-PCR). Type of experiment: cell-based. To be noted: 1 μM hANP, TGF-β1 stimulus. The procedure:
Using a 6-well dish, the A549 cells were cultured at 1×10^5 cells/well, and the culture medium was replaced with DMEM culture medium free from FBS the next day. After 24 hours of culture, the cells were used in the following experiment.
An ANP group (ANP solution was added (final concentration: 1 μM)) and a control group (the same amount of physiological saline was added) were prepared, and after 2 hours from the addition, TGF-β1 was added so that the final concentration would be 0.125, 0.25, 0.5, 1.0, and 2.0 ng/mL. After 24 hours had passed, the morphological change in the cells was observed under a microscope and photographed (FIG. 3).
Then, total RNA was collected using TRIZOL total RNA isolation reagent (made by Invitrogen), cDNA was synthesized using reverse transcriptase, and the mRNA levels of E-cadherin, N-cadherin, VEGF-A, PDGF-B, TNF-α, and IL-6 were measured by quantitative RT-PCR. It is known that in EMT, the expression of E-cadherin decreases while the expression of N-cadherin increases. The expression ratio of N-cadherin/E-cadherin is considered to be useful as an indicator of the degree of EMT.

For experiment [2], the system named is A549 cells. The experiment in a line: Mouse tail vein injection metastasis test, GFP-labeled A549 cells. In kind it is in vivo. To be noted: hANP 0.5 μg/kg/min by subcutaneous osmotic pump for 4 weeks, observed 8 weeks after injection, Balb/c (nu/nu) mice. As to the method:
Six-week-old male Balb/c (nu/nu) mice were used (purchased from Japan SLC, Inc.).
The osmotic pumps used were MODEL2004 (for 28-day administration) made by ALZET (Cupertino, Calif.).
Mice into which an osmotic pump containing 0.9% physiological saline was subcutaneously implanted in the back were assigned to the control group. Similarly, mice into which an osmotic pump containing hANP prepared for administration at 0.5 μg/kg/min was subcutaneously implanted were assigned to the ANP group. Injection of a tumor cell suspension was performed on the day after the osmotic pump implantation.
As the tumor cells, A549 cell line labeled with GFP (Green Fluorescent Protein) was purchased from Wako Pure Chemical Industries, Ltd., and cultured in RPMI1640 (Life Technologies Corp.) containing 10% FCS under 5% CO2 at 37° C. The cells in a subconfluent state were treated with EDTA-trypsin, centrifuged, and then suspended in serum free DMEM so as to be 1×10^7 cells/mL. The A549 cell suspension (100 μL/body, 1×10^6 cells) was injected to the tail vein of the mice.

In the case of `CC[C@H](C)[C@@H]1NC(=O)[C@H](CCCNC(=N)N)NC(=O)[C@H](CC(=O)O)NC(=O)[C@H](CCSC)NC(=O)[C@H](CCCNC(=N)N)NC(=O)CNC(=O)CNC(=O)[C@H](Cc2ccccc2)NC(=O)[C@@H](NC(=O)[C@H](CO)NC(=O)[C@H](CO)NC(=O)[C@H](CCCNC(=N)N)NC(=O)[C@H](CCCNC(=N)N)NC(=O)[C@H](CC(C)C)NC(=O)[C@@H](N)CO)CSSC[C@@H](C(=O)N[C@@H](CC(N)=O)C(=O)N[C@@H](CO)C(=O)N[C@@H](Cc2ccccc2)C(=O)N[C@@H](CCCNC(=N)N)C(=O)N[C@@H](Cc2ccc(O)cc2)C(=O)O)NC(=O)CNC(=O)[C@H](CC(C)C)NC(=O)CNC(=O)[C@H](CO)NC(=O)[C@H](CCC(N)=O)NC(=O)[C@H](C)NC(=O)CNC1=O` [hANP, carperitide], in the experiment on A549 cells [1], the “expression of E-cadherin under TGF-β1 stimulus” value was “inhibited decrease”, the “expression of N-cadherin induced by TGF-β1” value is reported as “significantly suppressed increase”, the “expression ratio of N-cadherin/E-cadherin” value is listed as “significantly decreased” and the “gene expression of IL-6 (mRNA level)” value was “significantly suppressed”. Moreover, in the experiment on A549 cells [1], the “gene expression of PDGF-B (mRNA level)” value was “significantly suppressed”, the “gene expression of TNF-α (mRNA level)” value was “significantly suppressed” and the “gene expression of VEGF-A (mRNA level)” value is “significantly suppressed”. In the experiment on A549 cells [1] (24 hours), the “morphological change associated with EMT induced by TGF-β1” value is “significantly suppressed”. Moreover, the “lung metastasis (number of nodules)” value in the experiment on A549 cells [2] is on record as “significantly suppressed”.
